Results filed as inconclusive are left out.
System: HeLa Env/CEM cell fusion, luciferase, 16-24 h
Assay: ZM109 Env clade C HIV-1 fusion inhibitors, dose response, HeLa effector, CEM target cells, luciferase, cherry-pick (AID 652058)

O=C(C[C@H]1C[C@H]2c3cc(NC(=O)c4ccc5c(c4)OCO5)ccc3O[C@H]2[C@H](CO)O1)NCc1ccc(Oc2ccccc2)cc1
AC50: 13.7 µM

Reference: PubChem BioAssay AID652058 (Broad Institute, 2013)
